The subject of data set [1] is subjects with MDD at imminent risk for suicide. It is filed as in vivo, human. Particulars: esketamine 84 mg. Here is the method: Transient blood pressure increases peaked for the esketamine group at approximately 40 minutes post dose with the maximum mean increases (across all dosing days) in systolic BP being 8.7 in the placebo group and 16.7 in the esketamine 84 mg group. The maximum mean increases (across all dosing days) in diastolic BP were 7.6 in the placebo group and 11.9 in the esketamine 84 mg group. […] See, FIGS. 46 and 47.

For data set [2], the system named is female Sprague-Dawley rats, PCG/RSC of the brain. In words: Single dose neurotoxicity study, intranasal instillation. Particulars: single dose, 72 mg. Here is the method:
Esketamine HCl was instilled intranasally at doses of 0 (vehicle), 36, 54 or 72 mg (expressed as esketamine base) to female rats on a single day. The dose levels were obtained by 2, 3 or 4 subsequent intranasal instillations, respectively, into both nostrils at a volume of 50 μL per nostril. At each instillation, the second nostril was dosed immediately after the first nostril. The interval between subsequent instillations into both nostrils was 5 minutes.
The vehicle control group received 4 subsequent intranasal instillations of the vehicle into both nostrils (50 μL per nostril) with 5-minute intervals.
The injection volume was 5 mL/kg.
The vehicle- and the 36 and 54 mg-dosed groups consisted of 24 animals per group, while the 72 mg-dosed and positive control groups involved 30 animals per group. Four satellite animals were added to the esketamine HCl-dosed groups of main study animals for toxicokinetic (TK) purposes. In these animals the plasma exposure to esketamine was measured on the day of dosing at various time points up to and including 24 hours after the first instillation.
Prior to the perfusion, rats were anesthetized with isoflurane. After injection of 0.1 ml heparin, the blood of the rat was flushed out with a physiological saline solution by intraarterial insertion of a needle in the abdominal aorta. Thereafter the rat was perfused with glutaraldehyde 3% in potassium phosphate 0.09M and 1.4% sucrose. Due to logistic constraints at maximum 30 animals could undergo the whole-body perfusion procedure on a given day. Therefore, a staggered start of treatment was applied to all 5 groups of main study animals. Consequently, subgroups of 4 main study animals of the vehicle- and 36 and 54 mg-dosed groups, and 5 main study animals of the 72 mg-dosed and positive control groups, were dosed on 6 consecutive days, respectively.
The vehicle control, positive control, and esketamine HCl-dosed animals were sacrificed at either 48 hours (i.e., the first 12 or 15 rats per group) or 96 hours after the dose administration time (i.e., the last 12 or 15 rats per group). The brain tissue of the vehicle control-, positive control- and esketamine HCl-treated rats were processed at the same time and handled in the same way in batches of 4 or 5 animals per group.
(§1) Furthermore, clinical observations were recorded for the esketamine HCl-dosed rats on the day of dosing at 0 till 5 minutes, 15 and 30 minutes, and at 1, 2, 4, 6 hours post-dose, at the end of the working day and at 24 hours after the last instillation in the single dose study and on the first day of dosing, after one week and towards the end of the dosing period in the repeated dose study. Body weight and body weight gain were measured daily. Food consumption was measured weekly in the repeated dose study.
(§2) On the day of terminal kill, a complete physical examination was performed on the rats in fasted condition and body weight was recorded. The surviving animals were anaesthetized by inhalation of an isoflurane (IsoFlo® Zoetis, Belgium)/oxygen mixture and killed by exsanguination via the carotid artery. […] All terminally killed rats or those killed pre-terminally were perfused with 4% paraformaldehyde in the single dose study and with glutaraldehyde 3% in potassium phosphate buffer 0.09 M with 1.4% sucrose in the repeated dose study.
(§3) Brain tissue was sampled and processed routinely. The trimmed and embedded tissue was sectioned and stained with hematoxylin-eosin (HE). Histoprocessing and staining were carried out in three batches of 4 animals per group (each batch thus containing 4 animals from vehicle control-, positive control- and the three esketamine HCl-treated groups). In the single dose study duplicate brain sections were stained with Fluoro-Jade (FJ).
All tissues showing gross abnormalities were examined macroscopically.

Data set [3] has the same test system. In words: 14-day repeated dose neurotoxicity study, intranasal instillation. Particulars: 14-day study, 54 mg/day. Here is the method: Esketamine HCl was administered into each nostril of female rats at a volume of 50 μl per nostril either once, twice or thrice daily by intranasal instillation for 14 consecutive days at doses of 0 (vehicle), 18, 36 or 54 mg/day. At each instillation, the second nostril was dosed immediately after the first nostril. The interval between subsequent instillations into both nostrils was 5 minutes when dosed 2 or 3 times per day.
The vehicle control group received 3 subsequent intranasal instillations of the vehicle into both nostrils (50 μL per nostril) with 5-minute intervals for 14 consecutive days.
The positive control group received a single subcutaneous injection of (+)MK-801 at 48 hours prior to the necropsy of the vehicle control and esketamine HCl-treated animals.
Each group of main study animals consisted of 12 female rats. Four satellite animals were added to the esketamine HCl-dosed groups of main study animals for TK purposes. The plasma exposure to esketamine was measured in these animals on the first and the last day of dosing at various time points up to and including 24 hours after the first instillation.
Due to logistic constraints associated with the whole body perfusion procedure of the animals at necropsy, a staggered start was applied to the study. Consequently, all 5 groups of main study animals were divided into three subgroups of 4 animals each. For each of these subgroups treatment started on a different day. The perfusion procedure is the is the same as described for the single dose study.
All vehicle- and esketamine HCl-treated animals were sacrificed at 48 hours after the last instillation. […] The brain tissue of the vehicle control-, positive control- and esketamine HCl-treated rats were processed at the same time and handled in the same way in batches of 4 animals per group.
as §1, §2, §3
All tissues showing gross abnormalities were examined […]. Histopathological examination was performed on 7 levels of brain tissue according to Bolon (2013. Toxicol. Pathol. 41(7), 1028-1048) from the vehicle control-, positive control-, and high dose esketamine HCl-treated groups in the single dose study, and in all groups in the repeated dose study.

The test system of data set [4] is patients with treatment-resistant depression (TRD). Put plainly: CADSS, Example 7. Particulars: human, in vivo, other: intranasal. Here is the method:
Adverse events were monitored throughout the study. Other safety assessments (i.e., laboratory tests, vital signs, physical examination) were performed at pre-specified time points. Vital signs, the Clinician Administered Dissociative States Scale (CADSS; Bremner, “Measurement of dissociative states with the clinician-administered dissociative states scale (CADSS)”, J. Traumatic Stress, 1998, 11(1):125-136), and the 4-item positive symptom subscale from the Brief Psychiatric Rating Scale (BPRS; Overall, “The Brief Psychiatric Rating Scale. Psychological Reports”, 1962, 10:799-812) were assessed pre-dose, at 40 minutes, and 2 hours post-dose.

Data set [5] has as its system adult subjects with TRD. The note with it: US patients.
Source text: Adverse events were reported by the subject (or, when appropriate, by a caregiver, surrogate, or the subject's legally acceptable representative) for the duration of the study. Adverse events were followed by the investigator. TEAEs of special interest were examined separately.
The verbatim terms used in the eCRF by investigators to identify adverse events were coded using the MedDRA. All reported adverse events with onset during the double-blind induction phase (i.e., TEAEs, and adverse events that have worsened since baseline) were included in the analysis. For each adverse event, the percentage of subjects who experience at least 1 occurrence of the given event was summarized by treatment group. Adverse events occurring during the follow-up phase were summarized separately.
TEAEs of special interest were examined separately. AEs of special interest were listed in the SAP. Subjects who died, who discontinued treatment due to an adverse event, or who experienced a severe or a serious adverse event were summarized separately.
An adverse event is any untoward medical occurrence in a clinical study subject administered a medicinal (investigational or non-investigational) product. […]
In data set [6] the test system is subjects with MDD at imminent risk for suicide. The note with it: esketamine 84 mg.
Procedure: The CADSS was measured prior to the start of each dose, at 40 minutes. 2 hours, and 4 hours postdose.

SMILES strings stand for the structures. Where only a bound is given, the exact number is not on record here.

For the molecule `CN[C@]1(c2ccccc2Cl)CCCCC1=O` [esketamine, (S)-2-(2-chlorophenyl)-2-(methylamino)cyclohexanone], in data set [1], the “Maximum mean increase in diastolic BP (across all dosing days)” value stood at 11.9, the “Maximum mean increase in systolic BP (across all dosing days)” value is 16.7 and the “Time of return of blood pressure to normal range” value is ≤ 2 hours post dose. In data set [2], the “AUC-based safety margin compared with the maximum 84 mg clinical dose” value is ~86 fold and the “Cmax-based safety margin compared with the maximum 84 mg clinical dose” value is given as “approximately 60 fold”. Moreover, in data set [3], the “AUC-based safety margin compared with the maximum 84 mg clinical dose” value was ~11 fold and the “Cmax-based safety margin compared with the maximum 84 mg clinical dose” value is “approximately 17 fold”. Moreover, in data set [4], the “Time of peak of perceptual changes/dissociative symptoms (CADSS)” value is 30 to 40 min and the “Time to resolution of perceptual changes/dissociative symptoms (CADSS)” value is ≤ 2 h. For the same molecule, in data set [5], the “Patients who withdrew from nasal spray drug” value was 3 patients. Besides, the “Time to resolution of dissociative symptoms (CADSS)” value in data set [6] was ≤ 2 h.
